Measurements: PubChem BioAssay (NCI)
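Step 1: Grow cells in 96-well plates. Step 2: Expose to compound for 48 hours at 5 concentrations. Step 3: Interpolate endpoints linearly; if unreached, use highest concentration. Abbreviation: GI50, concentration required for 50% inhibition of growth. TGI denotes the concentration required for complete inhibition of growth.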

How the values were obtained:
Assay in all cases: NCI anticancer screen, dose series, 48 h
DMS 273 small cell lung = tested on: DMS 273 small cell lung
LXFL 529 NSCLC = tested on: LXFL 529 NSCLC
SNB-78 CNS = tested on: SNB-78 CNS
HS 578T breast = tested on: HS 578T breast
BT-549 breast = tested on: BT-549 breast
MCF7 breast = tested on: MCF7 breast
MDA-MB-435 = tested on: MDA-MB-435
MDA-N = tested on: MDA-N

| Structure (SMILES) | TGI (DMS 273 small cell lung) [µM] | TGI (LXFL 529 NSCLC) [µM] | TGI (SNB-78 CNS) [µM] | GI50 (HS 578T breast) [µM] | TGI (HS 578T breast) [µM] | GI50 (BT-549 breast) [µM] | TGI (BT-549 breast) [µM] | GI50 (MCF7 breast) [µM] | TGI (MCF7 breast) [µM] | GI50 (MDA-MB-435) [µM] | TGI (MDA-MB-435) [µM] | GI50 (MDA-N) [µM] | TGI (MDA-N) [µM] |
| --- | --- | --- | --- | --- | --- | --- | --- | --- | --- | --- | --- | --- | --- |
| O=C(/C=C/c1ccccc1)c1ccc(NCc2nc3ccccc3[nH]2)cc1 | 16 | 10.8 | 20.7 | – | – | – | – | – | – | – | – | – | – |
| CNC(=O)c1nn(C)c2c1C(C)(C)Cc1cnc(Nc3ccc(N4CCN(C)CC4)cc3)nc1-2 | – | – | – | 0.369 | > 2.37 | 1.61 | > 8.77 | 0.238 | > 10 | 0.693 | > 10 | – | – |
| Cc1cc(I)cc(CN(C)CCCN2CCCC2)c1O | – | – | – | 13.6 | 33.8 | 13.9 | 31.7 | 12.8 | 29.5 | 12.9 | 28.6 | – | – |
| CCOC(=O)/C(C#N)=C\C=C(/Cl)c1ccc(Cl)cc1 | – | – | – | 22.7 | 60.7 | 25.8 | 68 | 25.6 | > 78.7 | 10.5 | 32.9 | – | – |
| C[C@H]1CCCC(O)C(O)[C@@H]2C[C@H](O[Si](C)(C)C(C)(C)C)C[C@H]2[C@H](O[Si](C)(C)C(C)(C)C)C(O)C(O)C(=O)O1 (some centres not stated) | – | – | – | – | – | 20.1 | > 100 | 50.2 | > 100 | > 100 | > 100 | > 100 | > 100 |
| COc1ccc(C(=O)c2ccc([As]=O)cc2)cc1 (configuration not stated) | – | – | – | 0.149 | 0.586 | 0.166 | 0.315 | 0.0212 | 0.136 | 0.121 | 0.254 | – | – |
| C(=N\Nc1nnn(Cc2ccccc2)n1)/c1ccccc1 | – | – | – | 13.7 | > 89.6 | 11.5 | > 100 | 2.41 | > 64.2 | 0.367 | 2.76 | – | – |
| Cn1cc(C2=C(c3cn(C4CCN(Cc5ccccn5)CC4)c4ccccc34)C(=O)NC2=O)c2ccccc21 | – | – | – | 3.75 | > 72.1 | 7.56 | > 100 | 3.23 | > 100 | 2.87 | > 100 | – | – |
| CN1/C(=C\C=C\C2=[N+](C)c3ccccc3C2(C)C)C(C)(C)c2ccccc21 | – | – | – | 0.216 | 4.45 | 0.0903 | 1.64 | 0.127 | 1.18 | 0.0739 | 0.936 | – | – |
| O=C(N/N=C/c1ccccc1O)c1ccccc1 | – | – | – | 27.1 | > 100 | 3.6 | > 100 | 2.86 | > 100 | 4.68 | > 100 | – | – |
| O=C(Nc1ccc(Cl)c(Cl)c1)NS(=O)(=O)c1cnccc1Oc1ccc(F)cc1 | – | – | – | 3.25 | > 100 | 6.84 | 40.4 | 2.37 | 7.8 | 2.98 | 12.2 | – | – |
| O=C1CCCCN1CCCCC#Cc1cccc(C#Cc2cccnc2)c1 | – | – | – | 28.5 | > 100 | 18.6 | 74.7 | 30.4 | > 100 | 28.9 | > 100 | – | – |
| CCN(C(=O)/C=C/c1ccco1)c1ccccc1 | – | – | – | – | > 100 | – | > 100 | – | > 100 | – | > 100 | – | > 100 |
| CCCCCCCCCCCCCCCC[N+]1(C)CCOCC1 | – | – | – | 2.23 | 8.44 | 2.2 | 4.7 | 2.72 | 13.2 | – | – | – | – |
| CSC1=Nc2ccccc2N=C(c2ccc(Cl)cc2)C1 | – | > 100 | > 100 | – | – | – | – | – | – | – | – | – | – |
| O=c1oc2ccc(I)cc2c(=O)n1-c1ccc(Cl)cc1F | – | – | – | 0.688 | 8.66 | 1.03 | 3.8 | 2.36 | 36.5 | 1.9 | 10.3 | – | – |
| Cc1c2ccccc2cc2ccc3oc([N+](=O)[O-])cc3c12 | > 100 | > 100 | > 100 | – | – | – | – | – | – | – | – | – | – |
| CC(=O)N1CCC2(c3ccccc3N(C(C)=O)C2c2ccc(O)cc2)C1C(=O)O (configuration not stated) | > 100 | > 100 | > 100 | – | – | – | – | – | – | – | – | – | – |
| CC(=O)/C(=C/c1ccccc1F)C(=O)c1ccccc1 | – | – | – | – | > 100 | – | > 100 | – | > 100 | – | > 100 | – | > 100 |
| CCOC(=O)C1SC(=Nc2ccc(Cl)cc2)N=C1C (configuration not stated) | – | – | 89.3 | – | – | – | – | – | – | – | – | – | – |
| CCOC(=O)NC(=O)c1cn(CCN2CCN(C(=O)CCCCCCCCCCC(=O)N3CCN(CCn4cc(C(=O)NC(=O)OCC)c(=O)[nH]c4=O)CC3)CC2)c(=O)[nH]c1=O | – | > 100 | – | – | – | – | – | – | – | – | – | – | – |
| CC(C)CCC1(CCN)C(=O)NC(=O)NC1=O | – | – | – | – | > 100 | – | > 100 | – | > 100 | – | > 100 | – | > 100 |
| O=C(O)[C@@H](Cc1ccc2ccccc2c1)NC(=O)n1c2ccccc2c2ccccc21 | – | – | – | 2.24 | 59.6 | 2.85 | 14.2 | 2.42 | > 100 | 1.09 | 3.39 | – | – |
| c1ccc2[nH]c(-c3ccc(Nc4nc(N5CCCCC5)nc(N5CCOCC5)n4)cc3)nc2c1 | – | – | – | 2.56 | 8.61 | 2.07 | 5.2 | 2.4 | 7.9 | 2.06 | 4.59 | – | – |
| O=c1c2cc(Br)ccc2nc(CCl)n1-c1ccc(O)c([N+](=O)[O-])c1 | – | 39.9 | 50.3 | – | – | – | – | – | – | – | – | – | – |
| O=c1cc(/C=C/c2ccccc2)[nH]c2cc3c(cc12)OCO3 | – | – | – | – | 8.75 | – | 22 | – | 21.5 | – | 4.29 | – | 6.23 |
| C=C1C[C@@H]2CC[C@@]34C[C@H]5O[C@H]6[C@@H](O3)[C@H]3O[C@H](CC[C@@H]3O[C@H]6[C@@H]5O4)CC(=O)C[C@@H]3[C@@H](OC)[C@@H](C[C@H](O)CN)O[C@H]3C[C@H]3O[C@@H](CC[C@@H]1O2)C[C@@H](C)C3=C | – | – | – | < 0.01 | > 100 | < 0.0167 | > 37.5 | < 0.01 | > 100 | < 0.01 | < 0.01 | – | – |
| CCCCN(CC)CC(C(C)=O)c1c(O)c2ccccc2oc1=O (configuration not stated) | > 100 | > 100 | > 100 | – | – | – | – | – | – | – | – | – | – |
| CCNC(=O)c1noc(-c2cc(C(C)C)c(O)cc2O)c1-c1ccc(CN2CCOCC2)cc1 | – | – | – | 2.47 | 56.9 | 8.36 | 30.4 | < 0.0194 | > 55 | < 0.0167 | 19.5 | – | – |
